In paper PMC12866838, “Targeting G3BP1 Condensate Topology Promotes Stress Granule Assembly via m^6A‐IGF2BP1 for Ischemic Stroke Rescue” (Advanced Science, 2025):

Target: T1, G3BP1^335–466 (RRM and IDR3 domains) (Homo sapiens, UniProt Q13283)
T1 construct: RRM + IDR3, residues 335-466, N-terminal GST removed by thrombin, E. coli BL21(DE3)
Experiment: SPR (Biacore T200, protein on CM5 chip)
Assay type: binding

T1 sequence (Q13283 335-466): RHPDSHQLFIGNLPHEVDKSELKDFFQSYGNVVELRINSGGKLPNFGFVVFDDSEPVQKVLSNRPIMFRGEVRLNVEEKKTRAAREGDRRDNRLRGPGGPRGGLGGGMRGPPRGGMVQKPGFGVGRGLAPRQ

Work on `COc1ccc(-c2oc3c(CC=C(C)C)c(O[C@@H]4O[C@H](CO)[C@@H](O)[C@H](O)[C@H]4O)cc(O)c3c(=O)c2O[C@@H]2O[C@@H](C)[C@H](O)[C@@H](O)[C@H]2O)cc1` [icariin] yielded a Kd greater than 100 µM.
